Values quoted from earlier work in US20200003795A1, “DETERMINATION OF ANALYTES IN LIQUID SAMPLES BY MASS SPECTROMETRY” (Quest Diagnostics Investments Incorporated, priority 2001, published 2020).
Where two headings read alike, the source gives them in different places.

Key:
[1] = circulating drug, at a therapeutic level of 1-10 μg/mL
[2] = not given; remark: listed apart in the source

| Therapeutic levels in blood ([2]; blood, trough) | mean-time-to-peak concentration ([2]; on administration) | Structure (SMILES) | therapeutic level (circulating) | half-life (multiple doses) | half-life (single dose) | bound to protein [1] |
| --- | --- | --- | --- | --- | --- | --- |
| – | – | Nc1nnc(-c2cccc(Cl)c2Cl)c(N)n1 [lamotrigine, 6-(2,3-dichlorophenyl)-1,2,4-triazine-3,5-diamine] | 1 to 10 µg/mL | 7.5 to 23.1 h | 6.4 to 30.4 h | about 55% |
| 3 to 18 ng/mL | 1 to 2 h | CO[C@H]1C[C@@H]2CC[C@@H](C)[C@@](O)(O2)C(=O)C(=O)N2CCCC[C@H]2C(=O)O[C@H]([C@H](C)C[C@@H]2CC[C@@H](O)[C@H](OC)C2)CC(=O)[C@H](C)/C=C(\C)[C@@H](O)[C@@H](OC)C(=O)[C@H](C)C[C@H](C)/C=C/C=C/C=C/1C [sirolimus] | – | – | – | – |
